Source: PMC9182007, “Statistical Methods in the Study of Protein Binding and Its Relationship to Drug Bioavailability in Breast Milk” (Molecules, 2022)
Where two headings read alike, the source gives them in different places.

Assays:
[1] = HPLC on immobilized artificial membrane column (HPLCIAM); format: physicochemical; conditions: for log k IAM: Table S5, IAM column, pH 7.4; for k IAM: Table S5, retention factor, IAM column, phosphate buffer pH 7.4/acetonitrile 80:20; for kIAM / log kIAM: Table S9, external group
[2] = cited from earlier work
[3] = Milk-to-plasma (M/P) drug concentration ratio obtained in vivo, from literature; parameters: species or system human; conditions: Table S1, scale of drug penetration into milk 1-4
[4] = ref DrugBank [7], cited from earlier work
[5] = molecular target: T1, human serum albumin (HSA) (Homo sapiens, UniProt P02768); conditions: for kHSA: Table S9, external group
plasma protein = conditions: ref DrugBank [7], cited from earlier work
[6] = molecular target: T1, human serum albumin (HSA); test: in vitro; conditions: immobilized hsa column, pH 7.4
[7] = NP TLC on non-impregnated control plates; format: physicochemical; conditions: for CNP (Rf, control NP plate): Table S3, non-impregnated NP plate, acetonitrile/acetate buffer pH 7.4/methanol 60:20:20; for CNP (Rf value from the non-impregnated NP plate, control): Table S8, external group
[8] = molecular target: T2, bovine serum albumin (BSA) (Bos taurus, UniProt P02769); test: NP TLC on plates impregnated with bovine serum albumin; format: binding; conditions: for NP (Rf, BSA-impregnated NP plate): Table S3, NP plate impregnated with 2 mg/mL BSA, pH 7.4 mobile phase; for NP (Rf value from the NP plate impregnated with 2 mg/mL BSA solution): Table S8, external group
T2 construct: purchased Sigma Aldrich

[9] = molecular target: T2, bovine serum albumin (BSA); test: RP TLC on plates impregnated with bovine serum albumin; format: binding; conditions: for RP (Rf, BSA-impregnated RP plate): Table S4, RP plate impregnated with 2 mg/mL BSA, pH 7.4 mobile phase; for RP (Rf value from the RP plate impregnated with 2 mg/mL BSA solution): Table S8, external group
[10] = RP TLC on non-impregnated control plates; format: physicochemical; conditions: for CRP (Rf, control RP plate): Table S4, non-impregnated RP plate, acetonitrile/acetate buffer pH 7.4/methanol 60:20:20; for CRP (Rf value from the non-impregnated RP plate, control): Table S8, external group
[11] = Table S1, milk/plasma drug concentration ratio, in vivo
[12] = Table S5, retention factor, HSA column, pH 7.4, 25 degrees Celsius
[13] = Table S1, plasma protein binding given as fraction
[14] = human, immobilized hsa column, pH 7.4
[15] = Table S6, external group (n = 38)
[16] = Table S6, external group, coded 1/0
[17] = Table S6, external group (n = 38), given as fraction

T1 sequence (P02768 25-609): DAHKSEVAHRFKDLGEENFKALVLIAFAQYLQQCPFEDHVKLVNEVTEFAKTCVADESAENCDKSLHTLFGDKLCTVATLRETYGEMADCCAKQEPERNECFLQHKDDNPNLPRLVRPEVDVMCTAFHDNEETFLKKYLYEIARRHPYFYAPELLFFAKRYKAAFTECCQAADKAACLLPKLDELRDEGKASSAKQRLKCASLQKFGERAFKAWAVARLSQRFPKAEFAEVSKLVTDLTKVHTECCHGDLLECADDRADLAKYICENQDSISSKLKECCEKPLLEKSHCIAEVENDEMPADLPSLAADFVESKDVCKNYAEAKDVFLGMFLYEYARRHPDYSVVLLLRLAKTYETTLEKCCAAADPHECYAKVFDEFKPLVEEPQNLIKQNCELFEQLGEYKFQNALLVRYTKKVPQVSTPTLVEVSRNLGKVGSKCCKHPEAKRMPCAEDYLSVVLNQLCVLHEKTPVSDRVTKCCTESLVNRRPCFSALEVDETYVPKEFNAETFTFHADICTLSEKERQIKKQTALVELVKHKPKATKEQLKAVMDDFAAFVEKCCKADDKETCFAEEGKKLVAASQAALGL
T2 sequence (P02769 25-607): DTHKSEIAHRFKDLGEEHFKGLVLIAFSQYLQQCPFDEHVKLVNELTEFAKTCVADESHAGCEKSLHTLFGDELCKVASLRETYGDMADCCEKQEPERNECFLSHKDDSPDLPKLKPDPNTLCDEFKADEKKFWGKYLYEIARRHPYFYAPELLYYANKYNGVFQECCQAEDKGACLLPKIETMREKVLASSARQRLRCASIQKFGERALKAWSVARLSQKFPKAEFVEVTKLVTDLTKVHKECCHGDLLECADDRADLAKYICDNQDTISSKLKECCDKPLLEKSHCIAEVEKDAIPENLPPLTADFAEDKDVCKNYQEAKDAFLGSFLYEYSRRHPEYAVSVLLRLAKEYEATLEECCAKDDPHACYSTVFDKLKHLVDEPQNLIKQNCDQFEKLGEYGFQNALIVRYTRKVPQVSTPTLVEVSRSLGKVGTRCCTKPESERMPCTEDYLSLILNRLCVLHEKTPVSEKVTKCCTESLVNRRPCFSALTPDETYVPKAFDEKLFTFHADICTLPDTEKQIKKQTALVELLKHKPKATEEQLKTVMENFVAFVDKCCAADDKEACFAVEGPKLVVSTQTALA

Row | Compound | log k IAM [1] | k IAM [1] | M/P [2, 11] | M/P code [3] | CNS+/- ([4]; Table S1, coded 1/0) | k HSA [5, 12] | PB (plasma protein; [13]) | chromatographic logD [6] | CNP (Rf, control NP plate) [7] | NP (Rf, BSA-impregnated NP plate) [8] | RP (Rf, BSA-impregnated RP plate) [9] | CRP (Rf, control RP plate) [10] | also measured
1 | OCCN1CCN(CC/C=C2/c3ccccc3Sc3ccc(Cl)cc32)CC1 [zuclopenthixol] | 1.69 | 48.73 | 0.37 | 1 (Code 1 corresponds to drugs with an M/P value <0.40—completely safe) | 1 | 16.18 | 0.985 | 1.21 | 0.47 | 0.47 |  |  | 
2 | C[C@H]1c2cccc(O)c2C(=O)C2=C(O)[C@]3(O)C(=O)C(C(N)=O)=C(O)[C@@H](N(C)C)[C@@H]3[C@@H](O)[C@@H]21 [doxycycline] | 0.24 | 1.76 | 0.34 | 1 (Code 1 corresponds to drugs with an M/P value <0.40—completely safe) | 0 | 1.68 | 0.9 | 0.23 | 0.06 | 0.05 | 0.09 | 0.08 | 
3 | CC(C)NCC(O)COc1ccc(CCOCC2CC2)cc1 (stereo not drawn) [betaxolol] |  |  | 2.75 | 4 (4 is M/P >1.20—dangerous) | 0 | 1.59 | 0.5 |  | 0.66 | 0.65 | 0.25 | 0.27 | log k HSA [5, 14]: 0.20
4 | C[C@]12C=CC(=O)C=C1CC[C@@H]1[C@@H]2[C@@H](O)C[C@@]2(C)[C@H]1CC[C@]2(O)C(=O)CO [prednizolone] | 0.45 | 2.84 | 0.13 | 1 (Code 1 corresponds to drugs with an M/P value <0.40—completely safe) |  | 0.52 | 0.9 |  | 0.94 | 0.94 | 0.88 | 0.87 | log k HSA ([5]; Table S5, HSA, pH 7.4): -0.28
5 | CN1C(C(=O)Nc2ccccn2)=C(O)c2ccccc2S1(=O)=O [piroxicam] | -0.79 | 0.16 | 0.02 | 1 (Code 1 corresponds to drugs with an M/P value <0.40—completely safe) | 0 | 32.92 |  | 1.52 | 0.98 | 0.98 | 0.60 | 0.58 | 
6 | CC1(C)S[C@@H]2[C@H](NC(=O)[C@H](N)c3ccc(O)cc3)C(=O)N2[C@H]1C(=O)O [amoxilcillin] | -1.32 | 0.05 | 0.028 | 1 (Code 1 corresponds to drugs with an M/P value <0.40—completely safe) | 0 | 0.94 | 0.2 |  | 0.68 | 0.68 | 0.98 | 0.99 | log k HSA ([5]; Table S5, HSA, pH 7.4): -0.03
7 | Cc1ccc(-c2cc(C(F)(F)F)nn2-c2ccc(S(N)(=O)=O)cc2)cc1 [celecoxib] | 1.70 | 50.01 | 0.41 | 2 (2 corresponds to the range of 0.40–0.80—at the safety limit) | 1 | 13.42 | 0.97 |  | 0.98 | 0.99 | 0.75 | 0.75 | log k HSA ([5]; Table S5, HSA, pH 7.4): 1.13
8 | O=C(O)C1N=C(c2ccccc2)c2cc(Cl)ccc2NC1=O (stereo not drawn) [clorazepate] | 0.69 | 4.88 | 0.2 | 1 (Code 1 corresponds to drugs with an M/P value <0.40—completely safe) |  |  | 0.975 | 0.6 | 0.94 | 0.94 | 0.81 | 0.81 | k HSA ([5]; pH 7.4): 3.99
9 | CN1CCN(C(=O)OC2c3nccnc3C(=O)N2c2ccc(Cl)cn2)CC1 (stereo not drawn) [zopiclone] | -0.04 | 0.91 | 0.51 | 2 (2 corresponds to the range of 0.40–0.80—at the safety limit) |  |  | 0.45 | -0.12 | 0.96 | 0.96 | 0.83 | 0.84 | k HSA ([5]; pH 7.4): 0.76
10 | Nc1ccc(O)c(C(=O)O)c1 [mesalazine] |  |  |  |  |  |  |  | -0.73 |  |  |  |  | kIAM [1]: 1.28; log kIAM [1]: 0.11; M/P [2, 15]: 2.69; RP (Rf value from the RP plate impregnated with 2 mg/mL BSA solution) [9]: 0.97; CNS+/- [4, 16]: 0; kHSA [5]: 0.18; CRP (Rf value from the non-impregnated RP plate, control) [10]: 0.99; PB (plasma protein; [17]): 0.43
11 | COc1cc(N)c(Cl)cc1C(=O)NC1CCN(CCCOc2ccc(F)cc2)CC1OC (stereo not drawn) [cisapride] | 1.76 | 57.99 | 0.045 | 1 (Code 1 corresponds to drugs with an M/P value <0.40—completely safe) | 1 | 4.88 | 0.975 |  | 0.64 | 0.63 | 0.62 | 0.65 | log k HSA [5, 14]: 0.69
12 | CCC(C)n1ncn(-c2ccc(N3CCN(c4ccc(OCC5COC(Cn6cncn6)(c6ccc(Cl)cc6Cl)O5)cc4)CC3)cc2)c1=O (stereo not drawn) [itraconazole] |  |  |  |  |  |  |  | 0.98 |  |  |  |  | kIAM [1]: 6.15; log kIAM [1]: 0.79; M/P [2, 15]: 1.14; RP (Rf value from the RP plate impregnated with 2 mg/mL BSA solution) [9]: 0.84; CNS+/- [4, 16]: 0; kHSA [5]: 9.65; CRP (Rf value from the non-impregnated RP plate, control) [10]: 0.86; PB (plasma protein; [17]): 1.00; CNP (Rf value from the non-impregnated NP plate, control) [7]: 0.96; NP (Rf value from the NP plate impregnated with 2 mg/mL BSA solution) [8]: 0.97
13 | CN[C@H]1CC[C@@H](c2ccc(Cl)c(Cl)c2)c2ccccc21 [sertraline] | 1.63 | 42.89 | 1.85 | 4 (4 is M/P >1.20—dangerous) |  | 13.19 | 0.98 |  | 0.53 | 0.53 | 0.48 | 0.49 | log k HSA [5, 14]: 1.12
14 | CC[C@H]1OC(=O)[C@H](C)[C@@H](O[C@H]2C[C@@](C)(OC)[C@@H](O)[C@H](C)O2)[C@H](C)[C@@H](O[C@@H]2O[C@H](C)C[C@H](N(C)C)[C@H]2O)[C@](C)(OC)C[C@@H](C)C(=O)[C@H](C)[C@@H](O)[C@]1(C)O [clarithromycin] | -1.02 | 0.10 | 0.25 | 1 (Code 1 corresponds to drugs with an M/P value <0.40—completely safe) | 0 | 0.82 |  |  | 0.99 | 0.99 | 0.78 | 0.83 | log k HSA ([5]; Table S5, HSA, pH 7.4): -0.09
15 | Fc1ccc([C@@H]2CCNC[C@H]2COc2ccc3c(c2)OCO3)cc1 [paroxetine] | 2.06 | 115.77 | 0.675 | 2 (2 corresponds to the range of 0.40–0.80—at the safety limit) | 1 | 5.96 | 0.94 |  | 0.55 | 0.56 | 0.67 | 0.60 | log k HSA ([5]; Table S5, HSA, pH 7.4): 0.78
16 | CCOC(=O)[C@H](CCc1ccccc1)N[C@@H](C)C(=O)N1Cc2ccccc2C[C@H]1C(=O)O [quinapril] | 0.09 | 1.22 | 0.12 | 1 (Code 1 corresponds to drugs with an M/P value <0.40—completely safe) | 0 | 3.1 | 0.97 |  | 0.44 | 0.44 | 0.56 | 0.57 | log k HSA [5, 14]: 0.49
17 | O=C(c1ccccc1)c1ccc2n1CCC2C(=O)O (stereo not drawn) [ketorolac] |  |  |  |  |  |  |  | 0.98 |  |  |  |  | kIAM [1]: 2.39; log kIAM [1]: 0.38; M/P [2, 15]: 0.03; RP (Rf value from the RP plate impregnated with 2 mg/mL BSA solution) [9]: 0.96; CNS+/- [4, 16]: 1; kHSA [5]: 9.65; CRP (Rf value from the non-impregnated RP plate, control) [10]: 0.96; PB (plasma protein; [17]): 0.99; CNP (Rf value from the non-impregnated NP plate, control) [7]: 0.92; NP (Rf value from the NP plate impregnated with 2 mg/mL BSA solution) [8]: 0.91
